Test results: ChEMBL document CHEMBL4052581, “Expanding the Cancer Arsenal with Targeted Therapies: Disarmament of the Antiapoptotic Bcl-2 Proteins by Small Molecules” (J Med Chem, 2017)
Each block holds one compound with its values, some of them ahead of it.

How the values were obtained:
[1] = target: T1, Induced myeloid leukemia cell differentiation protein Mcl-1 (Homo sapiens, UniProt Q07820); assay: Inhibition of Bim BH3 peptide binding to GST-tagged human Mcl-1 after 3 hrs by Western blotting-based GST pull-down assay
T1 sequence (Q07820 whole entry): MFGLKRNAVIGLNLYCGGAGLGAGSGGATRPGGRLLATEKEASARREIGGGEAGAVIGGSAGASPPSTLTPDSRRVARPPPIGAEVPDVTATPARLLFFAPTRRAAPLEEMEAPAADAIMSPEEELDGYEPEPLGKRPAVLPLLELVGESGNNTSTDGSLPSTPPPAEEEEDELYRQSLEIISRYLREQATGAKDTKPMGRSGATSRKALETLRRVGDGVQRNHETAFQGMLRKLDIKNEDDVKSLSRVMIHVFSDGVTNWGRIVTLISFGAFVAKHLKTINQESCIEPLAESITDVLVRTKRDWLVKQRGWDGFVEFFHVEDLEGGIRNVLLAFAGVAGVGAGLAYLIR

Bcl-2-like protein 1 [2] = target: T2, Bcl-2-like protein 1 (Homo sapiens, UniProt Q07817); assay: Inhibition of Bak BH3 peptide binding to GST-tagged human Bcl-xL after 3 hrs by Western blotting-based GST pull-down assay
T2 sequence (Q07817 whole entry): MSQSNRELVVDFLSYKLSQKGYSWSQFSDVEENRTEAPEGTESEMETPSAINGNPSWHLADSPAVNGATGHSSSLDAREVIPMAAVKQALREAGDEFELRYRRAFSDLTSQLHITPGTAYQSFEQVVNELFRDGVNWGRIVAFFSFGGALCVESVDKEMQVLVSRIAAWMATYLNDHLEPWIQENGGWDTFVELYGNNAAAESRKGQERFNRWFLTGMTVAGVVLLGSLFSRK

[3] = target: T1, Induced myeloid leukemia cell differentiation protein Mcl-1; assay: Binding affinity to Mcl-1 (unknown origin) by TR-FRET assay
[4] = target: T1, Induced myeloid leukemia cell differentiation protein Mcl-1; assay: Inhibition of FITC-BID BH3 peptide binding to recombinant GST-tagged N-terminal/C-terminal truncated Mcl-1 (unknown origin) expressed in Escherichia coli BL21 (DE3) after 5 mins by fluorescence polarization assay
Bcl-2-like protein 1 [5] = target: T2, Bcl-2-like protein 1; assay: Inhibition of FITC-BID BH3 peptide binding to recombinant GST-tagged C-terminal truncated Bcl-xL (unknown origin) expressed in Escherichia coli BL21 (DE3) after 5 mins by fluorescence polarization assay
[6] = target: T1, Induced myeloid leukemia cell differentiation protein Mcl-1; assay: Inhibition of FITC-labeled Bim BH3 binding to GST-tagged Mcl-1 (unknown origin) preincubated for 2 mins followed by FITC-Bim-BH3 addition measured after 10 mins by fluorescence polarization assay
[7] = target: T1, Induced myeloid leukemia cell differentiation protein Mcl-1; assay: Inhibition of FITC-labeled Bak-BH3 peptide binding to Mcl-1 (unknown origin) by fluorescence polarization assay
Bcl-2-like protein 1 [8] = target: T2, Bcl-2-like protein 1; assay: Inhibition of FITC-labeled Bak-BH3 peptide binding to Bcl-xL (unknown origin) by fluorescence polarization assay
[9] = Selectivity ratio of IC50 for human Bcl-2 to IC50 for mouse Mcl-1
[10] = target: T1, Induced myeloid leukemia cell differentiation protein Mcl-1; assay: Inhibition of FAM-Bid binding to Mcl-1 (unknown origin) after 30 mins by fluorescence polarization assay
[11] = target: T3, Apoptosis regulator Bcl-2 (Homo sapiens, UniProt P10415); assay: Inhibition of FAM-Bid binding to Bcl-2 (unknown origin) after 30 mins by fluorescence polarization assay
T3 sequence (P10415 whole entry): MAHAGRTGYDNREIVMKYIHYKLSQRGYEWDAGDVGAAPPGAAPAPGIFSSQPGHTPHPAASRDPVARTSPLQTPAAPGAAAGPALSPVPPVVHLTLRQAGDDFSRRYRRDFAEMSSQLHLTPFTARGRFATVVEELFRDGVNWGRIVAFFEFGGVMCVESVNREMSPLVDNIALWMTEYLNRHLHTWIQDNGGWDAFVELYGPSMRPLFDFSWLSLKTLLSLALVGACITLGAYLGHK

Homo sapiens [12] = species on record: Homo sapiens; assay: Selectivity ratio of compound effect for Bcl-2 (unknown origin) to compound effect for Mcl-1 (unknown origin)
Bcl-2-like protein 1 [13] = target: T2, Bcl-2-like protein 1; assay: Inhibition of Bcl-xL (unknown origin) by fluorescence polarization assay
Homo sapiens [14] = species on record: Homo sapiens; assay: Selectivity ratio of compound effect for Bcl-xL (unknown origin) to compound effect for Mcl-1 (unknown origin)
[15] = target: T3, Apoptosis regulator Bcl-2; assay: Inhibition of Bcl-2 (unknown origin) by fluorescence polarization assay
Bcl-2-related protein A1 = target: T4, Bcl-2-related protein A1 (Homo sapiens, UniProt Q16548); assay: Binding affinity to Bcl2A1 (unknown origin)
T4 sequence (Q16548 whole entry): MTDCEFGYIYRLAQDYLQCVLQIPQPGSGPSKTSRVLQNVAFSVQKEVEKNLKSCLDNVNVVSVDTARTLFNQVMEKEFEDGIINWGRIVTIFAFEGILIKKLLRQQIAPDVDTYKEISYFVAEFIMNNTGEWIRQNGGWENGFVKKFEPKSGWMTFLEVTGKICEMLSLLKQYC

IC50 [1]: 4.9 µM | IC50 (Bcl-2-like protein 1 [2]): 1.5 µM
Structure (SMILES): CC(C)Cc1cc(-c2ccc(-c3ccc(CCC(=O)O)cc3CC(C)C)cc2Cc2ccccc2)ccc1OCC(=O)O

Ki [3]: > 0.444 µM
Structure (SMILES): CC1(C)CCC(CN2CCN(c3ccc(C(=O)NS(=O)(=O)c4ccc(NCC5CCOCC5)c([N+](=O)[O-])c4)c(Oc4cnc5[nH]ccc5c4)c3)CC2)=C(c2ccc(Cl)cc2)C1 [VENETOCLAX]

IC50 [4]: 4.8 µM | IC50 (Bcl-2-like protein 1 [5]): > 50 µM
Structure (SMILES): Cc1cs/c(=N\C2CCCCC2)n1/N=C/c1cc(O)c(O)c(O)c1

IC50 [6]: 0.025 µM
Structure (SMILES): CC1=C(C2=C(C)C(=O)c3c(cc(O)c(O)c3Cc3ccccc3)C2=O)C(=O)c2cc(O)c(O)c(Cc3ccccc3)c2C1=O

IC50 [7]: 10 µM | IC50 (Bcl-2-like protein 1 [8]): 0.394 µM
Structure (SMILES): CC(C)Oc1cc(C(=O)Nc2ccc(C(=O)Nc3ccc(C(=O)O)cc3OC(C)C)nc2OC(C)C)ccc1N

Structure (SMILES): O=C(c1ccccc1O)c1[nH]c(Cl)c(Cl)c1-n1c(C(=O)c2ccccc2O)cc(Cl)c1Cl
Ratio IC50 [9]: > 8

Kd [10]: 0.058 µM | Kd [11]: 0.31 µM
Structure (SMILES): N#CC1=C2C(=NC1=O)c1cccc3c(N4CCSCC4)ccc2c13

Selectivity ratio (Homo sapiens [12]): > 1000 | Ki (Bcl-2-like protein 1 [13]): < 0.001 µM | Selectivity ratio (Homo sapiens [14]): > 1000 | Ki [15]: < 0.001 µM
Structure (SMILES): Cc1c(S(C)(=O)=O)c(-c2cc(F)cc(N3CCN(c4ccc(NS(=O)(=O)c5ccc(N[C@H](CCN6CCC(O)CC6)CSc6ccccc6)c(S(=O)(=O)C(F)(F)F)c5)cc4)CC3)c2)c(-c2ccc(Cl)cc2)n1C(C)C

Ki (Bcl-2-related protein A1): > 20 µM
Structure (SMILES): CN(C)CC[C@H](CSc1ccccc1)Nc1ccc(S(=O)(=O)NC(=O)c2ccc(N3CCN(Cc4ccccc4-c4ccc(Cl)cc4)CC3)cc2)cc1[N+](=O)[O-] [ABT 737]
